Measured values as given in patent publication US20140336218A1, “ARFORMOTEROL AND TIOTROPIUM COMPOSITIONS AND METHODS FOR USE” (priority 2008, published 2014).

Columns and labels:
COPD patients [1] = experiment: Spirometry (FEV1, FVC) in 2-week randomized, double dummy, parallel group clinical trial; assay type: in vivo, human
Protocol: (§1) This was a 2-week, prospective, multi-center (34 sites), randomized, modified blind, double dummy, parallel group study designed to evaluate the efficacy and safety of the combination of arformoterol 15 μg BID and tiotropium 18 μg QD (dosed sequentially) versus the individual mono-therapies in the treatment of COPD patients. The study was conducted according to the principles established by the Declaration of Helsinki (see, e.g., World Medical Association Declaration of Helsinki. Recommendations guiding physicians in biomedical research involving human subjects. JAMA 1997; 277:925-926.). Appropriate Institutional Review boards approved the protocol and written informed consent was obtained from the patients.
All patients had non-asthmatic COPD (including emphysema and/or chronic bronchitis). […] They also were required to have a pre-bronchodilator baseline pulmonary function of FEV1>0.7 L, FEV1/FVC ratio of ≦70%, and FEV1≦65% predicted. Patients were excluded if they had life-threatening or unstable respiratory status within 30 days of the screening visit. Patients who changed their prescribed dose or type of COPD medication within 14 days prior to screening or who had ever used tiotropium bromide inhalation powder were excluded.
(§2) Eligible patients were randomized to receive one of three treatments for 14 days: nebulized arformoterol 15 μg (Brovana®, Sepracor Inc., Marlborough, Mass.) BID and placebo DPI QD, nebulized placebo BID and tiotropium 18 μg (Spriva® HandiHaler® Boehringer Ingelheim, Ridgefield, Conn.) DPI QD, or nebulized arformoterol 15 μg BID and tiotropium 18 μg DPI QD. The nebulized drug was administered first using the PARI LC Plus® nebulizer driven by the Duraneb 3000® compressor (Pari: Pari Respiratory Equipment Inc., Midlothian, Va.) at a flow rate of 3.3 L/minute followed (within 5 minutes) by the DPI administration (HandiHaler®). The tiotropium and placebo DPI capsules were identical in size and shape but differed in color.
At week 0 and week 2, medical event calendars and blood samples were collected and vital signs and heart measurements analyzed. At week 0, spirometry was performed pre-morning dose, immediately (within 5 minutes) and at 30 minutes, 1, 2, 4, 6, 8, 10, and 12 hours post-first dose. After the 12-hour pulmonary function test patients self-administered the evening dose of study medication. At week 2, serial spirometry was also performed as at week 0, as well as immediately (within 5 minutes) following the evening dose (administered 12 hours after the morning dose) and 12.5, 13, 14, 16, 23, and 24 hours post-morning dose. Inspiratory capacity was evaluated pre-dose and at 2 hours post-morning dose at week 0, and pre-dose and 2, 11, 14, and 24 hours post-morning dose at week 2. All inspiratory capacity measurements were the mean of acceptable inspiratory capacity maneuvers, two of which were reproducible. Prior to an inspiratory capacity maneuver a patient had to have a stable expiratory level for about 10 breaths. Once the stable level was achieved, at the end of exhalation of a normal breath the patient was asked to make a steady and full inhalation at normal inspiratory flow rates until the lungs were completely full, and then to exhale at a normal rate.
All pulmonary function values used were the highest among the three acceptable maneuvers. The Investigator ensured that all spirometry was performed in accordance with the American Thoracic Society/European Respiratory Society Standardisation of Spirometry guidelines (see, e.g., Miller M R, Hankinson J, Brusasco V, Burgos F, Casaburi R, Coates A, et al. Standardisation of spirometry. Eur Respir J 2005; 26:319-338; herein incorporated in its entirety by reference). Centralized over-reading of spirometry and inspiratory capacity pulmonary function measures were used for quality control.

COPD patients [2] = experiment: Adverse events in 2-week clinical trial; settings: ITT, 2 weeks of treatment
Protocol: as §1, §2
Descriptive statistics were calculated by treatment for baseline characteristics and each efficacy parameter. Adverse events were summarized using counts and percentages. All adverse events were coded using MedDRA (Medical Dictionary for Regulatory Activities (see, e.g., MedDRA and MSSO. The medical dictionary for regulatory activities 2008). A COPD exacerbation was pre-defined as an increase in symptoms that necessitated any change in baseline medication other than bronchodilators (e.g. anti-inflammatory agents, antibiotics, supplemental oxygen therapy, etc.) or caused the patient to require additional medical attention (hospitalization, emergency room visit, etc.).

COPD patients [3] = experiment: Rescue medication (levalbuterol MDI) use in 2-week clinical trial; assay type: in vivo, human
Protocol: as §1
During the study period, the use of LABAs or long-or short-acting anticholinergic bronchodilators (except for the study medication) was prohibited. Use of oral and inhaled corticosteroids was allowed as long as patients were on a stable dosing regimen for at least 14 days prior to study entry that was maintained throughout the study. Patients were required to withhold oral corticosteroids for at least 24 hours prior to pulmonary function testing. Leukotriene modifiers and methylxanthines were not allowed for at least 7-days prior to study entry. Levalbuterol MDI (Xopenex® Sepracor Inc., Marlborough, Mass.) was supplied and used as-needed for rescue medications for acute bronchospasm and acute treatment of COPD symptoms throughout the trial. Patients were instructed to withhold the use of rescue medication for ≧6 hours prior to each clinic visit.
At the screening visit, baseline values were obtained for COPD symptoms, Modified Medical Research Council (MMRC) Dyspnea Scale, heart rate, vital signs, and pulmonary function tests. Medical event calendars and medication logs that were to be completed daily, and rescue medication were also dispensed. The medication logs were used to assess compliance by monitoring the number of UDV/DPI doses taken.
as §2

[4] = ITT, change from baseline at week 2
[5] = ITT, week 2, combined therapy versus the mono-therapy
[6] = baseline percent predicted FEV1 <50%, week 2, combined versus the mono-therapy
[7] = baseline percent predicted FEV1 <50%, week 2 from study baseline
[8] = baseline percent predicted FEV1 ≧50%, week 2, combined versus the mono-therapy
[9] = baseline percent predicted FEV1 ≧50%, week 2 from study baseline
[10] = <50% percent predicted FEV1, changes in levalbuterol MDI use at week 2
[11] = ITT, week 2, change from baseline, levalbuterol rescue
[12] = ≧50% percent predicted FEV1, changes in levalbuterol MDI use at week 2

## C[N+]1(C)[C@@H]2C[C@@H](OC(=O)C(O)(c3cccs3)c3cccs3)C[C@H]1[C@@H]1O[C@@H]12 [Tiotropium]
COPD patients [1]; [4]
  Peak Change in FEV1 over 12 hours, mean (SD): 0.27 (0.23) L
  Peak change in FVC over 12 hours, mean (SD): 0.40 (0.34) L
COPD patients [1]; ITT, change from baseline at week 2, time normalized
  Change in FEV1AUC0-24, mean (SD): 0.08 (0.20) L
COPD patients [1]; [5]
  Difference between combined therapy and mono-therapies in change in FEV1AUC0-24, LS mean: 0.14 L
  Difference between combined therapy and mono-therapies in change in trough FEV1, LS mean: 0.07 L
  Difference between combined therapy and mono-therapies in peak change in FEV1 over 12 hours, LS mean: 0.11 L
  Difference between combined therapy and mono-therapies in peak change in FVC over 12 hours, LS mean: 0.20 L
COPD patients [1]; ITT, week 2, trough = 24 hour time point after morning dose
  Change in trough FEV1, mean (SD): 0.08 (0.21) L
COPD patients [1]; [6]
  Difference between combined therapy and mono-therapies in change in FEV1AUC0-24, LS mean: 0.16 L
  Difference between combined therapy and mono-therapies in peak change in FEV1 over 12 hours, LS mean: 0.14 L
  Difference between combined therapy and mono-therapies in peak change in FVC over 12 hours, LS mean: 0.28 L
  Difference between combined therapy and mono-therapies in trough FEV1, LS mean: 0.10 L
COPD patients [1]; [7]
  Peak Change in FEV1 over 12 hours, mean (SD): 0.29 (0.26) L
  Peak change in FVC over 12 hours, mean (SD): 0.43 (0.37) L
  Trough FEV1 (change in FEV1 at 24 hours post-dose), mean (SD): 0.11 (0.22) L
COPD patients [1]; baseline percent predicted FEV1 <50%, week 2 from study baseline (pre-dose week 0)
  Change in FEV1AUC0-24, mean (SD): 0.10 (0.22) L
COPD patients [1]; [8]
  Difference between combined therapy and mono-therapies in change in FEV1AUC0-24, LS mean: 0.12 L
  Difference between combined therapy and mono-therapies in peak change in FEV1 over 12 hours, LS mean: 0.09 L
  Difference between combined therapy and mono-therapies in peak change in FVC over 12 hours, LS mean: 0.08 L
  Difference between combined therapy and mono-therapies in trough FEV1, LS mean: 0.04 L
COPD patients [1]; [9]
  Peak Change in FEV1 over 12 hours, mean (SD): 0.23 (0.16) L
  Peak change in FVC over 12 hours, mean (SD): 0.34 (0.28) L
  Trough FEV1 (change in FEV1 at 24 hours post-dose), mean (SD): 0.03 (0.17) L
COPD patients [1]; baseline percent predicted FEV1 ≧50%, week 2 from study baseline (pre-dose week 0)
  Change in FEV1AUC0-24, mean (SD): 0.05 (0.14) L
COPD patients [1]; from baseline after 2 weeks of treatment
  mean improvement in peak FVC: 40 mL
COPD patients [1]; from visit pre-dose
  LS mean (±SE) peak improvement in FEV1 from visit pre-dose: 0.19 L
COPD patients [2]
  Any adverse event, n (%): 22 (27.5) n (%)
  COPD exacerbations: 0 n (%)
  Discontinued due to adverse events, n (%): 1 (1.3) n (%)
  Overall cardiovascular adverse events, n (%): 1 (1.3) n (%)
  Serious adverse events, n (%): 0 n (%)
COPD patients [3]; [10]
  Number of actuations per day, mean (SD): −1.8 (3.3) actuations per day
  Used levalbuterol, n (%): 48 (94.1) n (%)
COPD patients [3]; ITT, week 2
  Used levalbuterol, n (%): 38 (47.5) n (%)
COPD patients [3]; [11]
  Number of actuations per day, mean (SD): −1.8 (2.8) actuations per day
  Number of days per week, mean (SD): −2.2 (2.7) days per week
COPD patients [3]; [12]
  Number of actuations per day, mean (SD): −1.9 (1.8) actuations per day
  Used levalbuterol, n (%): 27 (96.4) n (%)
